Measurements from publication PMC1361622 (2006).

Tested on: construct 1 (consensus-type glmS ribozyme, A6 and A58) (RNA, ribozyme) GGUAAAUUAUAAAAGCGCCAGAACUACAGAAAUGUAGUUGACGAGGAGGAGGUUUAUCGAAUUUUCGGCGGAUGCCUCC
Test: half-maximal kobs of ligand-dependent self-cleavage
Details: 20 mM Mg2+; 50 mM Tris-HCl pH 7.5, 23 °C; GlcN6P varied

N[C@H]1C(O)O[C@H](COP(=O)(O)O)[C@@H](O)[C@@H]1O (stereo partly shown)
apparent Kd: ~ 200 µM
